Data: patent US20080200533A1, “Drug or Pharmaceutical Compounds and a Preparation Thereof” (priority 2005, published 2008)
Like-named read-outs stand apart in the source and are kept apart here.

Legend:
[1] = oral; cited from earlier work
[2] = Experimental: 1 gram mole equivalent of (S)-2,6-diaminohexanoic acid is added to the above ethyl acetate solution and stirred at ambient room temperature.
[3] = tested on: CYP3A4; conditions: cited from earlier work
[4] = cited from earlier work

CC(C)c1c(C(=O)Nc2ccccc2)c(-c2ccccc2)c(-c2ccc(F)cc2)n1CC[C@@H](O)C[C@@H](O)CC(=O)O (relative stereo) [atorvastatin, [R—(R*,R*)]-2-(4-fluorophenyl)-β,δ-dihydroxy-5-((1-methylethyl)-3-phenyl-4-[(phenylamino)-carbonyl]-1H-pyrrole-1-heptanoic acid]
orally administered drug absorbed from the intestine [1]: about 30%

CC(C)c1nc(N(C)S(C)(=O)=O)nc(-c2ccc(F)cc2)c1/C=C/[C@@H](O)C[C@@H](O)CC(=O)O [Rosuvastatin acid]
solubility in water (in words) [2]: water insoluble

CC(C)c1c(C(=O)Nc2ccccc2)c(-c2ccccc2)c(-c2ccc(F)cc2)n1CC[C@@H]1C[C@@H](O)CC(=O)O1 [atorvastatin lactone]
affinity to CYP3A4 compared with the acid [3]: significantly higher affinity | CYP-dependent metabolism to ortho-hydroxy metabolite, compared with atorvastatin acid ([3]; human liver microsomes): 20 fold | CYP-dependent metabolism to para-hydroxy metabolite, compared with atorvastatin acid ([3]; human liver microsomes): 83 fold

CC[C@H](CC[C@@H](C)[C@H]1CC[C@H]2[C@@H]3CC=C4C[C@@H](O)CC[C@]4(C)[C@H]3CC[C@]12C)C(C)C [beta sitosterol]
beta sitosterol soluble in triolein oil ([4]; linked as an ester to decanoic acid): 1.1% | beta sitosterol soluble in triolein oil ([4]; linked as an ester to lauric acid): 0.6% | beta sitosterol soluble in triolein oil ([4]; linked as an ester to palmitic acid): 0.1%
